{"source": "PubChem BioAssay (NCI)", "test_in_all_cases": "NCI tumour cell line growth inhibition, 48 h", "key": {"[1]": {"test_system": "EKVX NSCLC"}, "[2]": {"test_system": "COLO 205 colon"}, "[3]": {"test_system": "786-0 renal"}, "[4]": {"test_system": "UACC-62 melanoma"}, "[5]": {"test_system": "HT29 colon"}, "[6]": {"test_system": "UACC-257 melanoma"}, "[7]": {"test_system": "NCI-H23 lung"}, "[8]": {"test_system": "HCT-116 colon"}, "[9]": {"test_system": "SK-MEL-5 melanoma"}, "[10]": {"test_system": "SNB-19 CNS"}, "[11]": {"test_system": "BT-549 breast"}, "[12]": {"test_system": "SN12C renal"}, "[13]": {"test_system": "OVCAR-5 ovarian"}, "[14]": {"test_system": "ACHN renal"}, "[15]": {"test_system": "HCT-15 colon"}, "[16]": {"test_system": "SK-MEL-2 melanoma"}, "[17]": {"test_system": "U251 CNS"}, "[18]": {"test_system": "KM12 colon"}, "[19]": {"test_system": "RXF 393 renal"}, "[20]": {"test_system": "NCI-H522 lung"}, "[21]": {"test_system": "SF-295 CNS"}, "[22]": {"test_system": "CAKI-1 renal"}, "[23]": {"test_system": "NCI-H226 lung"}, "[24]": {"test_system": "HOP-62 NSCLC"}, "[25]": {"test_system": "A549 NSCLC"}, "[26]": {"test_system": "SF-268 CNS"}, "[27]": {"test_system": "SK-OV-3 ovarian"}, "[28]": {"test_system": "CCRF-CEM leukemia"}, "[29]": {"test_system": "DU-145 prostate"}, "[30]": {"test_system": "MCF7 breast"}, "[31]": {"test_system": "NCI/ADR-RES ovarian"}, "[32]": {"test_system": "MDA-MB-435"}, "[33]": {"test_system": "OVCAR-4 ovarian"}, "[34]": {"test_system": "SK-MEL-28 melanoma"}, "[35]": {"test_system": "K-562 leukemia"}, "[36]": {"test_system": "PC-3 prostate"}, "[37]": {"test_system": "NCI-H460 lung"}, "[38]": {"test_system": "UO-31 renal"}, "[39]": {"test_system": "T-47D breast"}, "[40]": {"test_system": "OVCAR-8 ovarian"}, "[41]": {"test_system": "M14 melanoma"}, "[42]": {"test_system": "SR leukemia"}, "[43]": {"test_system": "IGROV1 ovarian"}, "[44]": {"test_system": "SNB-75 CNS"}, "[45]": {"test_system": "RPMI-8226 leukemia"}, "[46]": {"test_system": "HCC-2998 colon"}, "[47]": {"test_system": "TK-10 renal"}, "[48]": {"test_system": "MDA-MB-231 breast"}, "[49]": {"test_system": "SW-620 colon"}, "[50]": {"test_system": "MALME-3M melanoma"}, "[51]": {"test_system": "LOX IMVI melanoma"}, "[52]": {"test_system": "SF-539 CNS"}, "[53]": {"test_system": "A498 renal"}, "[54]": {"test_system": "MOLT-4 leukemia"}}, "note": "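Protocol summary: plate cells (96-well), add compound at 5 concentrations, incubate 48 h, interpolate endpoints linearly. TGI: total growth inhibition.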"}
{"smiles": "CN(C)c1ccc(/C=C2\\C[C@H]3[C@@H]4CCc5cc(OCCN6CCCC6)ccc5[C@H]4CC[C@]3(C)C2=O)cc1", "values": [{"measurement": "TGI", "setting": "[1]", "value": 6.32, "unit": "µM"}, {"measurement": "TGI", "setting": "[2]", "value": 2.85, "unit": "µM"}, {"measurement": "TGI", "setting": "[3]", "value": 2.6, "unit": "µM"}, {"measurement": "TGI", "setting": "[4]", "value": 4.24, "unit": "µM"}, {"measurement": "TGI", "setting": "[5]", "value": 0.814, "unit": "µM"}, {"measurement": "TGI", "setting": "[6]", "value": 5.35, "unit": "µM"}, {"measurement": "TGI", "setting": "[7]", "value": "> 100", "unit": "µM"}, {"measurement": "TGI", "setting": "[8]", "value": 2.45, "unit": "µM"}, {"measurement": "TGI", "setting": "[9]", "value": 3.22, "unit": "µM"}, {"measurement": "TGI", "setting": "[10]", "value": 4.09, "unit": "µM"}, {"measurement": "TGI", "setting": "[11]", "value": "> 100", "unit": "µM"}, {"measurement": "TGI", "setting": "[12]", "value": 2.97, "unit": "µM"}, {"measurement": "TGI", "setting": "[13]", "value": 8.62, "unit": "µM"}, {"measurement": "TGI", "setting": "[14]", "value": 3.11, "unit": "µM"}, {"measurement": "TGI", "setting": "[15]", "value": 2.66, "unit": "µM"}, {"measurement": "TGI", "setting": "[16]", "value": 3.93, "unit": "µM"}]}
{"smiles": "O/C(=C\\c1nc2ccccc2nc1/C=C(\\O)c1ccc(Cl)cc1)c1ccccc1", "values": [{"measurement": "TGI", "setting": "[17]", "value": "> 100", "unit": "µM"}, {"measurement": "TGI", "setting": "[18]", "value": "> 100", "unit": "µM"}, {"measurement": "TGI", "setting": "[19]", "value": "> 100", "unit": "µM"}, {"measurement": "TGI", "setting": "[20]", "value": "> 100", "unit": "µM"}, {"measurement": "TGI", "setting": "[21]", "value": "> 100", "unit": "µM"}, {"measurement": "TGI", "setting": "[22]", "value": 65.4, "unit": "µM"}, {"measurement": "TGI", "setting": "[23]", "value": "> 100", "unit": "µM"}, {"measurement": "TGI", "setting": "[1]", "value": "> 100", "unit": "µM"}, {"measurement": "TGI", "setting": "[2]", "value": "> 100", "unit": "µM"}, {"measurement": "TGI", "setting": "[3]", "value": "> 100", "unit": "µM"}, {"measurement": "TGI", "setting": "[24]", "value": "> 100", "unit": "µM"}, {"measurement": "TGI", "setting": "[4]", "value": "> 100", "unit": "µM"}, {"measurement": "TGI", "setting": "[25]", "value": "> 100", "unit": "µM"}, {"measurement": "TGI", "setting": "[26]", "value": "> 100", "unit": "µM"}, {"measurement": "TGI", "setting": "[27]", "value": "> 100", "unit": "µM"}, {"measurement": "TGI", "setting": "[28]", "value": "> 100", "unit": "µM"}, {"measurement": "TGI", "setting": "[29]", "value": "> 100", "unit": "µM"}, {"measurement": "TGI", "setting": "[30]", "value": "> 100", "unit": "µM"}, {"measurement": "TGI", "setting": "[6]", "value": "> 100", "unit": "µM"}, {"measurement": "TGI", "setting": "[7]", "value": "> 100", "unit": "µM"}, {"measurement": "TGI", "setting": "[8]", "value": "> 100", "unit": "µM"}, {"measurement": "TGI", "setting": "[9]", "value": "> 100", "unit": "µM"}, {"measurement": "TGI", "setting": "[31]", "value": "> 100", "unit": "µM"}, {"measurement": "TGI", "setting": "[32]", "value": "> 100", "unit": "µM"}, {"measurement": "TGI", "setting": "[10]", "value": "> 100", "unit": "µM"}, {"measurement": "TGI", "setting": "[11]", "value": "> 100", "unit": "µM"}, {"measurement": "TGI", "setting": "[33]", "value": "> 100", "unit": "µM"}, {"measurement": "TGI", "setting": "[34]", "value": "> 100", "unit": "µM"}, {"measurement": "TGI", "setting": "[35]", "value": "> 100", "unit": "µM"}, {"measurement": "TGI", "setting": "[36]", "value": "> 100", "unit": "µM"}, {"measurement": "TGI", "setting": "[37]", "value": "> 100", "unit": "µM"}, {"measurement": "TGI", "setting": "[38]", "value": "> 100", "unit": "µM"}, {"measurement": "TGI", "setting": "[12]", "value": "> 100", "unit": "µM"}, {"measurement": "TGI", "setting": "[39]", "value": "> 100", "unit": "µM"}, {"measurement": "TGI", "setting": "[40]", "value": "> 100", "unit": "µM"}, {"measurement": "TGI", "setting": "[41]", "value": "> 100", "unit": "µM"}, {"measurement": "TGI", "setting": "[42]", "value": "> 100", "unit": "µM"}, {"measurement": "TGI", "setting": "[43]", "value": "> 100", "unit": "µM"}, {"measurement": "TGI", "setting": "[13]", "value": "> 100", "unit": "µM"}, {"measurement": "TGI", "setting": "[44]", "value": 72.8, "unit": "µM"}, {"measurement": "TGI", "setting": "[14]", "value": "> 100", "unit": "µM"}, {"measurement": "TGI", "setting": "[45]", "value": "> 100", "unit": "µM"}, {"measurement": "TGI", "setting": "[46]", "value": "> 100", "unit": "µM"}, {"measurement": "TGI", "setting": "[15]", "value": "> 100", "unit": "µM"}, {"measurement": "TGI", "setting": "[47]", "value": "> 100", "unit": "µM"}, {"measurement": "TGI", "setting": "[16]", "value": "> 100", "unit": "µM"}, {"measurement": "TGI", "setting": "[48]", "value": "> 100", "unit": "µM"}, {"measurement": "TGI", "setting": "[49]", "value": "> 100", "unit": "µM"}, {"measurement": "TGI", "setting": "[50]", "value": "> 100", "unit": "µM"}, {"measurement": "TGI", "setting": "[51]", "value": "> 100", "unit": "µM"}, {"measurement": "TGI", "setting": "[52]", "value": "> 100", "unit": "µM"}, {"measurement": "TGI", "setting": "[53]", "value": "> 100", "unit": "µM"}, {"measurement": "TGI", "setting": "[54]", "value": 40.9, "unit": "µM"}]}
